This passage reports MIC results from ChEMBL document CHEMBL3046070, “New N-arylamino biquinoline derivatives: microwave-assisted synthesis and their antimicrobial activities” (2013).

Holding throughout (format): functional
One assay relates to Candida albicans. Nature of the assay: Antifungal activity against Candida albicans MTCC 227 assessed as growth inhibition after overnight incubation by NCCLS broth microdilution method. A general note: Dilution methods test growth across graded concentrations, often in twofold steps.
The test system of a further assay is Salmonella typhi. Nature of the assay: Antibacterial activity against Salmonella enterica subsp. enterica serovar Typhi MTCC 98 assessed as growth inhibition after overnight incubation by NCCLS broth microdilution method.
The test system of a further assay is Vibrio cholerae. Nature of the assay: Antibacterial activity against Vibrio cholerae MTCC 3906 assessed as growth inhibition after overnight incubation by NCCLS broth microdilution method.
Another assay has as its system Aspergillus fumigatus. Kind of assay: Antifungal activity against Aspergillus fumigatus MTCC 3008 assessed as growth inhibition after overnight incubation by NCCLS broth microdilution method.
A further assay has as its system Clostridium tetani. Nature of the assay: Antibacterial activity against Clostridium tetani MTCC 449 assessed as growth inhibition after overnight incubation by NCCLS broth microdilution method.
For another assay, the system named is Streptococcus pneumoniae. Kind of assay: Antibacterial activity against Streptococcus pneumoniae MTCC 1936 assessed as growth inhibition after overnight incubation by NCCLS broth microdilution method.
The test system of the next assay is Escherichia coli. Nature of the assay: Antibacterial activity against Escherichia coli MTCC 443 assessed as growth inhibition after overnight incubation by NCCLS broth microdilution method.
The test system of a further assay is Bacillus subtilis. Nature of the assay: Antibacterial activity against Bacillus subtilis MTCC 441 assessed as growth inhibition after overnight incubation by NCCLS broth microdilution method.

In brackets after ≈: the same amount, converted by molar mass.

In general, MIC refers to the smallest concentration in the dilution series that meets the test's criterion for growth inhibition. Regarding `CCOC(=O)C1=C(N)N(Nc2ccc(Cl)cc2)C2=C(C(=O)CC(C)(C)C2)C1c1cc2cc(C)ccc2nc1Cl` (stereo not given), the MIC in the assay on Candida albicans is 500 µg/mL (≈ 884 µM); in the assay on Salmonella typhi it was 200 µg/mL (≈ 354 µM); in the assay with Vibrio cholerae it was 250 µg/mL (≈ 442 µM); in the assay on Aspergillus fumigatus, > 1000 µg/mL; in the assay on Clostridium tetani it was 200 µg/mL (≈ 354 µM); in the assay on Streptococcus pneumoniae it was 500 µg/mL (≈ 884 µM). Moreover, the MIC in the assay with Escherichia coli came to 62.5 µg/mL (≈ 111 µM); in the assay with Bacillus subtilis, 500 µg/mL (≈ 884 µM).
With `CCOC(=O)C1=C(N)N(Nc2ccc(C)cc2)C2=C(C(=O)CC(C)(C)C2)C1c1cc2cc(C)ccc2nc1Cl` (stereo not given), the MIC in the assay with Candida albicans was 1000 µg/mL (≈ 1830 µM); in the assay on Salmonella typhi, 500 µg/mL (≈ 917 µM); in the assay on Vibrio cholerae, 500 µg/mL (≈ 917 µM); with Aspergillus fumigatus, > 1000 µg/mL; in the assay on Clostridium tetani, 500 µg/mL (≈ 917 µM); with Streptococcus pneumoniae it was 250 µg/mL (≈ 459 µM). In addition, the MIC in the assay with Escherichia coli and in the assay on Bacillus subtilis was 250 µg/mL (≈ 459 µM) in each case.
`CCOC(=O)C1=C(N)N(Nc2ccc(Cl)cc2)C2=C(C(=O)CC(C)(C)C2)C1c1cc2cc(OC)ccc2nc1Cl` (stereo not given): the MIC in the assay with Candida albicans was 500 µg/mL (≈ 860 µM); with Salmonella typhi, 100 µg/mL (≈ 172 µM); in the assay on Vibrio cholerae it was 250 µg/mL (≈ 430 µM); in the assay with Aspergillus fumigatus, > 1000 µg/mL; in the assay on Clostridium tetani, 250 µg/mL (≈ 430 µM); in the assay on Streptococcus pneumoniae it was 250 µg/mL (≈ 430 µM). Moreover, the MIC in the assay on Escherichia coli was 100 µg/mL (≈ 172 µM); with Bacillus subtilis it was 250 µg/mL (≈ 430 µM).
Regarding `CCOC(=O)C1=C(N)N(Nc2ccccc2)C2=C(C(=O)CC(C)(C)C2)C1c1cc2cc(OC)ccc2nc1Cl` (stereo not given), the MIC was > 1000 µg/mL in the assay with Candida albicans; 250 µg/mL (≈ 457 µM) with Salmonella typhi; 250 µg/mL (≈ 457 µM) with Vibrio cholerae; > 1000 µg/mL in the assay on Aspergillus fumigatus; 250 µg/mL (≈ 457 µM) with Clostridium tetani; 200 µg/mL (≈ 366 µM) in the assay with Streptococcus pneumoniae. Further, the values for the MIC in the assay with Escherichia coli and with Bacillus subtilis were 250 µg/mL (≈ 457 µM) and 200 µg/mL (≈ 366 µM), respectively.
Take `CCOC(=O)C1=C(N)N(Nc2ccccc2)C2=C(C(=O)CC(C)(C)C2)C1c1cc2ccccc2nc1Cl` (stereo not given): the MIC in the assay on Candida albicans is 250 µg/mL (≈ 484 µM); in the assay on Salmonella typhi, 200 µg/mL (≈ 387 µM); in the assay with Vibrio cholerae, 500 µg/mL (≈ 967 µM); with Aspergillus fumigatus, > 1000 µg/mL; in the assay with Clostridium tetani, 500 µg/mL (≈ 967 µM); in the assay with Streptococcus pneumoniae, 200 µg/mL (≈ 387 µM). The MIC came to 50 µg/mL (≈ 96.7 µM) in the assay with Escherichia coli and 200 µg/mL (≈ 387 µM) in the assay with Bacillus subtilis.
